Source: patent US5808049A, “Stereospecific 5-fu esters and methods for preparing same” (Director-General of Agency of Industrial Science and …, priority 1994, dated 1998)

What was measured:
in vitro [1] = conditions: human, mia paca-2 cells, pH 7.5
Experimental: (§1) Each of the reaction mixtures was prepared by dissolving 1 mg of the ester in 10 μl of ethanol, and by mixing with it, 90 μl of a 0.1M phosphoric acid buffer (having a pH of 7.5), plus one of the following: 100 μl of a cell suspension, or 20 or 30 μl of whole blood, or 50 μl of tissue homogenate. […] The cells numbers in 100 μl of the cell suspension used in the reaction were as follows: rat liver cancer cells Anr4=7×10^6 ; rat pancreas cancer cells ARIP=8×10^6 ; rat sarcoma cells XC=5×10^6 ; human histiocytic leukemia cells U937=1×10^7 ; human pancreas cancer cells MIA PaCa-2=8×10^6 ; and human intestinum crassum cancer cells Colo 320=1×10^7. Fifty μl of the tissue homogenate corresponded to 20 mg of wet tissue.
(§2) Each of these reaction mixtures was stirred for 12 hours at 30° C. by a magnetic stirrer; then 1.5 μl of 2N HCl was added, to bring the pH to about 2.5, and extraction with 1 ml of ethyl acetate in the presence of a saturated sodium chloride was carried out twice. The ethyl acetate layers of each sample were combined, the volume was adjusted to precisely 2 ml, and it was divided into 1.7 ml and 0.3 ml. The former was concentrated under reduced pressure, and the contained produced carboxylic acid was isolated by thin-layer preparative chromatography. A solution of diazomethane in ether was added to it, to methylate it, and the absolute configuration and the optical purity of the methylated product were determined by high-performance liquid chromatography using a chiral column. The latter 0.3 ml was directly methylated, and then it was concentrated and adjusted to 0.3 ml again, and the methyl ester of the contained produced carboxylic acid was determined quantitatively by gas chromatography, from which the hydrolyzed rate was determined. The column used in the high-performance liquid chromatography was a Chiralcell OJ or OD column (trade name; 4.6×250 mm) manufactured by Daicel; the elution was carried out by using a 10% 2-propanol/hexane mixture; and the flow velocity was 1 or 0.75 ml/min. The column used in the gas chromatography was a capillary column of OV-1 (0.25 mm×25 m), and the analysis temperature was 120° to 180° C.

[2] = tested on: rat liver cancer cells Anr4; assay: Stereoselective hydrolysis of anticancer agent esters with rat liver cancer cells Anr4; conditions: Anr4; 12 hours at 30° C., pH 7.5
Experimental: as §1, §2

in vitro [3] = conditions: human, blood, pH 7.5
Experimental: as §1, §2

[4] = tested on: rat pancreas cancer cells ARIP; assay: Stereoselective hydrolysis of anticancer agent esters with rat pancreas cancer cells ARIP; conditions: ARIP; 12 hours at 30° C., pH 7.5
Experimental: as §1, §2

in vitro [5] = conditions: rat, arip cells, pH 7.5
Experimental: as §1, §2

[6] = tested on: human pancreas cancer cells MIA PaCa-2; assay: Stereoselective hydrolysis of anticancer agent esters with human pancreas cancer cells MIA PaCa-2; conditions: MIA PaCa-2; 12 hours at 30° C., pH 7.5
Experimental: as §1, §2

[7] = Stereoselective hydrolysis of anticancer agent esters with rat whole blood; conditions: pH 7.5; for enantiomer excess of the carboxylic acid produced by the hydrolysis: rat whole blood, 12 hours at 30° C.
Experimental: as §1, §2

rat sarcoma cells XC = assay: Stereoselective hydrolysis of anticancer agent esters with rat sarcoma cells XC; conditions: XC; 12 hours at 30° C., pH 7.5
Experimental: as §1, §2

[8] = tested on: human histiocytic leukemia cells U937; assay: Stereoselective hydrolysis of anticancer agent esters with human histiocytic leukemia cells U937; conditions: U937; 12 hours at 30° C., pH 7.5
Experimental: as §1, §2

in vitro [9] = conditions: human, colo 320 cells, pH 7.5
Experimental: as §1, §2

in vitro [10] = conditions: human, u937 cells, pH 7.5
Experimental: as §1, §2

[11] = Stereoselective hydrolysis of anticancer agent esters with human whole blood; conditions: pH 7.5; for enantiomer excess of the carboxylic acid produced by the hydrolysis: human whole blood, 12 hours at 30° C.
Experimental: as §1, §2

in vitro [12] = conditions: rat, blood, pH 7.5
Experimental: as §1, §2

in vitro [13] = conditions: rat, anr4 cells, pH 7.5
Experimental: as §1, §2

[14] = Stereoselective hydrolysis of anticancer agent esters with normal rat muscle homogenate; conditions: 12 hours at 30° C., pH 7.5
[15] = tested on: human intestinum crassum cancer cells Colo 320; assay: Stereoselective hydrolysis of anticancer agent esters with human intestinum crassum cancer cells Colo 320; conditions: Colo320; 12 hours at 30° C., pH 7.5
Experimental: as §1, §2

[16] = Stereoselective hydrolysis of anticancer agent esters with normal rat pancreas homogenate; conditions: 12 hours at 30° C., pH 7.5
Experimental: as §1, §2

[17] = Stereoselective hydrolysis of anticancer agent esters with normal rat liver homogenate; conditions: 12 hours at 30° C., pH 7.5
in vitro [18] = conditions: rat, xc cells, pH 7.5
Experimental: as §1, §2

[19] = Stereoselective hydrolysis of anticancer agent esters with rat liver cancer cells Anr4; conditions: rat, anr4 cells, pH 7.5
Experimental: as §1, §2

[20] = Stereoselective hydrolysis of anticancer agent esters with rat pancreas cancer cells ARIP; conditions: rat, arip cells, pH 7.5
Experimental: as §1, §2

[21] = Stereoselective hydrolysis of anticancer agent esters with human pancreas cancer cells MIA PaCa-2; conditions: human, mia paca-2 cells, pH 7.5
Experimental: as §1, §2

[22] = Stereoselective hydrolysis of anticancer agent esters with rat sarcoma cells XC; conditions: rat, xc cells, pH 7.5
Experimental: as §1, §2

[23] = Stereoselective hydrolysis of anticancer agent esters with human histiocytic leukemia cells U937; conditions: human, u937 cells, pH 7.5
Experimental: as §1, §2

[24] = Stereoselective hydrolysis of anticancer agent esters with human intestinum crassum cancer cells Colo 320; conditions: human, colo 320 cells, pH 7.5
Experimental: as §1, §2

Structure (SMILES)	enantiomer excess of the carboxylic acid produced by the hydrolysis [2] [% e.e.]	enantiomer excess of the carboxylic acid produced by the hydrolysis [4] [% e.e.]	enantiomer excess of the carboxylic acid produced by the hydrolysis [6] [% e.e.]	enantiomer excess of the carboxylic acid produced by the hydrolysis [7] [% e.e.]	enantiomer excess of the carboxylic acid produced by the hydrolysis (rat sarcoma cells XC) [% e.e.]	enantiomer excess of the carboxylic acid produced by the hydrolysis [8] [% e.e.]	enantiomer excess of the carboxylic acid produced by the hydrolysis [11] [% e.e.]	enantiomer excess of the carboxylic acid produced by the hydrolysis [14] [% e.e.]	enantiomer excess of the carboxylic acid produced by the hydrolysis [15] [% e.e.]	enantiomer excess of the carboxylic acid produced by the hydrolysis [16] [% e.e.]	enantiomer excess of the carboxylic acid produced by the hydrolysis [17] [% e.e.]	further results
O=C(Oc1ccc(N(CCCl)CCCl)cc1)C(Cc1ccccc1)NC(=O)C(F)(F)F (racemic) [Ic, (±)-4-bis(2-chloroethyl)aminophenyl 2-trifluoroacetamido-3-phenylpropionate]	94.9	83.0	2.6	18.3	77.9	> 99	23.7	72.4	35.9	> 99	93.2	metabolised at 12 h (in vitro [1]): 7.2%; metabolised at 12 h (in vitro [3]): 8%; metabolised at 12 h (in vitro [5]): 14.6%; metabolised at 12 h (in vitro [9]): 2.4%; metabolised at 12 h (in vitro [10]): 9.6%; metabolised at 12 h (in vitro [12]): 18.2%; metabolised at 12 h (in vitro [13]): 0.6%; metabolised at 12 h (in vitro [18]): 10.6%
O=C(OC[C@H]1O[C@@H](n2cc(F)c(=O)[nH]c2=O)[C@H](O)[C@@H]1O)C(Cc1ccccc1)NC(=O)C(F)(F)F (stereo partly drawn) [IIc, 5'-(RS)-(2-trifluoroacetamido-3-phenylpropionyl)-5-fluorouridine]	98.4	> 99	19.0	41.8	> 99	57.8	66.9	87.8	64.6	> 99	> 99	metabolised at 12 h [19]: 7.8%; metabolised at 12 h [20]: 1.9%; metabolised at 12 h [21]: 20.6%; metabolised at 12 h ([7]; rat, whole blood): 16.3%; metabolised at 12 h [22]: 3.4%; metabolised at 12 h [23]: 12.6%; metabolised at 12 h ([11]; human, whole blood): 36.1%; metabolised at 12 h [24]: 13.8%
